Measurements reported in ChEMBL document CHEMBL5108002, “Design, synthesis, and biological evaluation of novel 7-substituted 10,11-methylenedioxy-camptothecin derivatives against drug-resistant small-cell lung cancer in vitro and in vivo” (Eur J Med Chem, 2022).
Active and inactive are the calls of the source. No cut-off for these calls is given here.

Columns and labels:
[1] = Resistance index, ratio of IC50 for antiproliferative activity against etoposide/cisplatin combination-resistant human NCI-H446 cells to IC50 for antiproliferative activity against human NCI-H446 cells; format: functional
H69AR [2] = assay: Induction of apoptosis in human NCI-H69AR cells assessed as reduction in XIAP mRNA expression at 0.1 to 100 nM incubated for 24 hrs by RT-PCR analysis; format: functional, cell-based; settings: dose 0.1-100 nM
NCI-H446 [3] = assay: Induction of apoptosis in human NCI-H446 cells assessed as reduction in Bcl-2 mRNA level at 0.1 to 100 nM incubated for 24 hrs by RT-PCR analysis; format: functional, cell-based; settings: dose 0.1-100 nM
H69AR [4] = assay: Induction of apoptosis in human NCI-H69AR cells assessed as late apoptotic cells at 100 nM incubated for 24 hrs by AnnexinV-FITC/PI staining based flow cytometry analysis (reference value: 2.99 %); format: functional
U-87 MG = assay: Antiproliferative activity against human U87 cells assessed as inhibition of cell growth incubated for 72 hrs by SRB assay; format: functional, cell-based, U-87MG ATCC
NCI-H446 [5] = assay: Antitumor activity against human NCI-H446 cells xenografted in BALB/c nude mouse assessed as tumor growth inhibition at 3 mg/kg, IG administered once a week for 28 days by electronic caliper method relative to control; format: functional; settings: NCI-H446, po, 672 h, time 28 day, read-out: TGI
H69AR [6] = assay: Induction of apoptosis in human NCI-H69AR cells assessed as reduction in Bcl-2 mRNA expression at 0.1 to 100 nM incubated for 24 hrs by RT-PCR analysis; format: functional, cell-based; settings: dose 0.1-100 nM
NCI-H446 [7] = assay: Induction of apoptosis in human NCI-H446 cells assessed as late apoptotic cells at 10 nM incubated for 24 hrs by AnnexinV-FITC/PI staining based flow cytometry analysis (reference value: 0.37 %); format: functional
H69AR [8] = assay: Induction of apoptosis in human NCI-H69AR cells assessed as inhibition of Mcl-1 protein expression at 0.1 to 100 nM incubated for 24 hrs by Western blot analysis; format: functional, cell-based; settings: dose 0.1-100 nM
MCF7 = assay: Antiproliferative activity against human MCF7 cells assessed as inhibition of cell growth incubated for 72 hrs by SRB assay; format: functional, cell-based; settings: MCF7, 72 h
NCI-H69 [9] = assay: Induction of apoptosis in human NCI-H69 cells assessed as inhibition of XIAP protein expression at 0.1 to 100 nM incubated for 24 hrs by Western blot analysis; format: functional, cell-based; settings: dose 0.1-100 nM
NCI-H446 [10] = assay: Induction of apoptosis in human NCI-H446 cells assessed as late apoptotic cells at 1 nM incubated for 24 hrs by AnnexinV-FITC/PI staining based flow cytometry analysis (reference value: 0.37 %); format: functional
NCI-H446 [11] = assay: Induction of apoptosis in human NCI-H446 cells assessed as increase in cleaved-caspase 9 protein expression at 0.1 to 100 nM measured after 24 to 48 hrs by Western blot analysis; format: functional, cell-based; settings: dose 0.1-100 nM, time 24-48 hrs
H69AR [12] = assay: Induction of apoptosis in human NCI-H69AR cells assessed as increase in cleaved-PARP protein expression at 0.1 to 100 nM measured after 24 hrs by Western blot analysis; format: functional, cell-based; settings: dose 0.1-100 nM
NCI-H446 [13] = assay: Antitumor activity against etoposide/cisplatin combination-resistant human NCI-H446 cells xenografted in BALB/c nude mouse assessed as average tumor mass at 3 mg/kg, IG administered once a week and measured 3 times a week; format: functional
NCI-H69 [14] = assay: Induction of apoptosis in human NCI-H69 cells assessed as inhibition of survivin protein expression at 0.1 to 100 nM incubated for 24 hrs by Western blot analysis; format: functional, cell-based; settings: dose 0.1-100 nM
NCI-H446 [15] = assay: Antiproliferative activity against etoposide/cisplatin combination-resistant human NCI-H446 cells assessed as inhibition of cell growth incubated for 72 hrs by SRB assay; format: functional, cell-based; settings: NCI-H446, 72 h
NCI-H69 [16] = assay: Induction of apoptosis in human NCI-H69 cells assessed as reduction in Bcl-2 mRNA expression at 0.1 to 100 nM incubated for 24 hrs by RT-PCR analysis; format: functional, cell-based; settings: dose 0.1-100 nM
NCI-H446 [17] = assay: Induction of apoptosis in human NCI-H446 cells assessed as dead cells at 0.1 nM incubated for 24 hrs by AnnexinV-FITC/PI staining based flow cytometry analysis (reference value: 0.22 %); format: functional
NCI-H69 [18] = assay: Induction of apoptosis in human NCI-H69 cells assessed as reduction in survivin mRNA expression at 0.1 to 100 nM incubated for 24 hrs by RT-PCR analysis; format: functional, cell-based; settings: dose 0.1-100 nM
H69AR [19] = assay: Induction of apoptosis in human NCI-H69AR cells assessed as dead cells at 10 nM incubated for 24 hrs by AnnexinV-FITC/PI staining based flow cytometry analysis (reference value: 1.92 %); format: functional
H69AR [20] = assay: Induction of apoptosis in human NCI-H69AR cells assessed as early apoptotic cells at 10 nM incubated for 24 hrs by AnnexinV-FITC/PI staining based flow cytometry analysis (reference value: 0.35 %); format: functional
HepG2 = assay: Antiproliferative activity against human HepG2 cells assessed as inhibition of cell growth incubated for 72 hrs by SRB assay; format: functional, cell-based; settings: HepG2, 72 h
NCI-H69 [21] = assay: Induction of apoptosis in human NCI-H69 cells assessed as increase in cleaved-PARP protein expression at 0.1 to 100 nM measured after 24 hrs by Western blot analysis; format: functional, cell-based; settings: dose 0.1-100 nM
NCI-H446 [22] = assay: Antitumor activity against human NCI-H446 cells xenografted in BALB/c nude mouse assessed as tumor growth inhibition at 1.5 mg/kg, IG administered once a week for 28 days by electronic caliper method relative to control; format: functional; settings: NCI-H446, po, 672 h, time 28 day, read-out: TGI
NCI-H69 [23] = assay: Induction of apoptosis in human NCI-H69 cells assessed as increase in cleaved-caspase 9 protein expression at 0.1 to 100 nM measured after 24 hrs by Western blot analysis; format: functional, cell-based; settings: dose 0.1-100 nM
Bel-7402 = assay: Antiproliferative activity against human Bel-7402 cells assessed as inhibition of cell growth incubated for 72 hrs by SRB assay; format: functional, cell-based; settings: Bel-7402, 72 h
H69AR [24] = assay: Induction of apoptosis in human NCI-H69AR cells assessed as inhibition of survivin protein expression at 0.1 to 100 nM incubated for 24 hrs by Western blot analysis; format: functional, cell-based; settings: dose 0.1-100 nM
Mus musculus = assay: Downregulation of Bcl-2 protein expression in tumor of BALB/c mouse xenografted with human NCI-H446 cells at 0.75 mg/kg, IG administered intragastrically once a week for 28 days by western blot analysis; format: functional, organism-based; settings: time 28.0 day
NCI-H446 [25] = assay: Induction of apoptosis in human NCI-H446 cells assessed as inhibition of Bcl-2 protein expression incubated for 24 hrs by Western blot analysis; format: functional, cell-based; settings: dose 0.1-100 nM
NCI-H446 [26] = assay: Induction of apoptosis in human NCI-H446 cells assessed as early apoptotic cells at 0.1 nM incubated for 24 hrs by AnnexinV-FITC/PI staining based flow cytometry analysis (reference value: 3.1 %); format: functional
H69AR [27] = assay: Antiproliferative activity against human NCI-H69AR cells assessed as inhibition of cell growth incubated for 72 hrs by SRB assay; format: functional, cell-based
NCI-H69 [28] = assay: Induction of apoptosis in human NCI-H69 cells assessed as inhibition of Mcl-1 protein expression at 0.1 to 100 nM incubated for 24 hrs by Western blot analysis; format: functional, cell-based; settings: dose 0.1-100 nM
NCI-H69 [29] = assay: Induction of apoptosis in human NCI-H69 cells assessed as reduction in XIAP mRNA expression at 0.1 to 100 nM incubated for 24 hrs by RT-PCR analysis; format: functional, cell-based; settings: dose 0.1-100 nM

Compound: CC[C@@]1(O)C(=O)OCc2c1cc1n(c2=O)Cc2c-1nc1cc3c(cc1c2-c1ccoc1)OCO3
- Ratio IC50 [1]: 0.63
- Activity (H69AR [2]): Active
- Activity (NCI-H446 [3]): Active
- Activity (H69AR [4]): 32.38%
- IC50 (U-87 MG): 19.1 nM
- inhibition in vivo at 3 mg/kg (NCI-H446 [5]): 95.5%
- Activity (H69AR [6]): Active
- Activity (NCI-H446 [7]): 6.25%
- inhibition (H69AR [8]): Active
- IC50 (MCF7): 9.49 nM
- inhibition (NCI-H69 [9]): Active
- Activity (NCI-H446 [10]): 9.6%
- Activity (NCI-H446 [11]): Active
- Activity (H69AR [12]): Active
- Activity (NCI-H446 [13]): 0.23 g
- inhibition (NCI-H69 [14]): Active
- IC50 (NCI-H446 [15]): 0.49 nM
- Activity (NCI-H69 [16]): Active
- Activity (NCI-H446 [17]): 0.91%
- Activity (NCI-H69 [18]): Active
- Activity (H69AR [19]): 1.82%
- Activity (H69AR [20]): 0.57%
- IC50 (HepG2): 1.42 nM
- Activity (NCI-H69 [21]): Active
- inhibition in vivo at 1.5 mg/kg (NCI-H446 [22]): 73.7%
- Activity (NCI-H69 [23]): Active
- IC50 (Bel-7402): 3.8 nM
- inhibition (H69AR [24]): Active
- Activity (Mus musculus): Active
- inhibition (NCI-H446 [25]): Active
- Activity (NCI-H446 [26]): 7%
- IC50 (H69AR [27]): 5.57 nM
- inhibition (NCI-H69 [28]): Active
- Activity (NCI-H69 [29]): Active
